In US8735406B2, “8-oxodihydropurine derivative” (Dainippon Sumitomo Pharma Co., Ltd., priority 2009, dated 2014):
Like-named read-outs stand apart in the source and are kept apart here.

Molecular target: T1, FAAH (Rattus norvegicus, UniProt P97612)
T1 construct: Preparation of Rat Brain Membranes Preparations (FAAH Enzyme Solution); from tissue; host or cells: rat cerebrum (brain membrane preparation)
T1 sequence (P97612 1-579): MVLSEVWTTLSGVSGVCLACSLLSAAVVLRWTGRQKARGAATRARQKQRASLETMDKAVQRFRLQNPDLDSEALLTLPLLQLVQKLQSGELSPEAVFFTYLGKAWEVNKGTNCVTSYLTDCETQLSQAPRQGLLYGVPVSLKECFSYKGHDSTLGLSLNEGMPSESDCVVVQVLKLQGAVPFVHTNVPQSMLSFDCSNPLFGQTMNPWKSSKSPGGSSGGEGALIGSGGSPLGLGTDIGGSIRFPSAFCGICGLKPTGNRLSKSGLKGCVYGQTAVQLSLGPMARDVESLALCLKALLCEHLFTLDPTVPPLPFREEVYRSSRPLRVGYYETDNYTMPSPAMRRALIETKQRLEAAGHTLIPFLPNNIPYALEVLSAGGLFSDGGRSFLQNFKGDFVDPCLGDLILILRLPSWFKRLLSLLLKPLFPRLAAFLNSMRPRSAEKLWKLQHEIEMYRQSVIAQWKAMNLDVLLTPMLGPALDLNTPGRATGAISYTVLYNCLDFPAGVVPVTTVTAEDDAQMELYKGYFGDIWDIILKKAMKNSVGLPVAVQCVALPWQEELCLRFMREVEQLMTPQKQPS
Assay: Determination of FAAH inhibitory activity in rat (rat brain membrane preparations, [3H]-anandamide hydrolysis)
Format: biochemical
Conditions: rat brain membrane preparations; for IC50: read-out: FAAH Inhibition IC50
How it was run: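 Compounds tested from 0.1 nM to 1 μM to derive IC50 against FAAH hydrolysis in rat brain membrane preparations (100 μg/mL). A 10-min 37 °C preincubation was followed by 10 min with [3H]-anandamide (2 nM) mixed with 2 μM unlabelled anandamide. Radioactive ethanolamine was extracted into the water/methanol layer and counted.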

[1] = 100 nM test substance, read-out: FAAH Inhibition, Inhibition Rate at 100 nM
[2] = at 100 nM, read-out: FAAH Inhibition Inhibition Rate at 100 nM

| Compound | inhibition at 0.1 µM [1] | IC50 (test substance 0.1 nM to 1 μM) | inhibition at 0.1 µM [2] | IC50 |
| --- | --- | --- | --- | --- |
| CC(=O)c1ccc(N2CCN(C(=O)n3c(=O)n(C)c4nc(-c5ccccc5)ncc43)CC2)cc1 [Example 133, 7-{[4-(4-Acetylphenyl)piperazin-1-yl]carbonyl}-9-methyl-2-phenyl-7,9-dihydro-8H-purine-8-one] | 100% | 6 nM | – | – |
| Cn1c(=O)n(C(=O)N2CCCC2)c2cnc(-c3cncc(F)c3)nc21 [compound 211] | 101% | 8 nM | – | – |
| COc1cccc(-c2ncc3c(n2)n(C)c(=O)n3C(=O)N(C)Cc2ccc(Cl)cc2)c1 [Example 78, N-(4-Chlorobenzyl)-2-(3-methoxyphenyl)-N,9-dimethyl-8-oxo-8,9-dihydro-7H-purine-7-carboxamide] | 108% | 10 nM | – | – |
| Cn1c(=O)n(C(=O)N2CCC2)c2nc(CCCC3CCCCC3)ncc21 [Example 619] | – | – | 103% | 9 nM |
| COCc1ncc2c(n1)n(C)c(=O)n2C(=O)N1CC(c2ccccc2Cl)C1 [Example 453, 7-{[3-(2-Chlorophenyl)azetidin-1-yl]carbonyl}-2-(methoxymethyl)-9-methyl-7,9-dihydro-8H-purine-8-one] | 90% | 12 nM | – | – |
| CN(C)C(=O)n1c(=O)n(C)c2cnc(-c3ccc(C(F)(F)F)cc3F)nc21 [Example 338, 2-[2-Fluoro-4-(trifluoromethyl)phenyl]-N,N,7-trimethyl-8-oxo-7,8-dihydro-9H-purine-9-carboxamide] | 83% | 21 nM | – | – |
| COCc1ncc2c(n1)n(C)c(=O)n2C(=O)N1CC[C@@H](Oc2ccc(F)cc2)C1 [Example 480, 7-{[(3R)-3-(4-Fluorophenoxy)pyrrolidin-1-yl]carbonyl}-2-(methoxymethyl)-9-methyl-7,9-dihydro-8H-purine-8-one] | 88% | 83 nM | – | – |
| Cc1cccc(Cc2ncc3c(n2)n(C(=O)N2CCCC2)c(=O)n3C)c1 [Example 294, 7-Methyl-2-(3-methylbenzyl)-9-(pyrrolidin-1-ylcarbonyl)-7,9-dihydro-8H-purine-8-one] | 93% | 37 nM | – | – |
| CN(C)C(=O)n1c(=O)n(C)c2cnc(CCOc3cccc(Cl)c3)nc21 [Example 641, 2-[2-(3-Chlorophenoxy)ethyl]-N,N,7-trimethyl-8-oxo-7,8-dihydro-9H-purine-9-carboxamide] | – | – | 105% | 8 nM |
| CCOCc1ncc2c(n1)n(C)c(=O)n2C(=O)N1CC(c2ccccc2)C1 [Example 460, 2-(Ethoxymethyl)-9-methyl-7-[(3-phenylazetidin-1-yl)carbonyl]-7,9-dihydro-8H-purine-8-one] | 108% | 11 nM | – | – |
| CCN(C)C(=O)n1c(=O)n(C)c2cnc(CCc3ccccc3F)nc21 [compound 554] | 43% | – | – | – |
| CCN(C)C(=O)n1c(=O)n(C)c2nc(-c3ccnc(F)c3)ncc21 [Example 221, N-Ethyl-2-(2-fluoropyridin-4-yl)-N,9-dimethyl-8-oxo-8,9-dihydro-7H-purine-7-carboxamide] | 100% | 4 nM | – | – |
| COc1cccc(-c2ncc3c(n2)n(C)c(=O)n3C(=O)N(C)CCOCC2CC2)c1 [Example 116, N-[2-(Cyclopropylmethoxy)ethyl]-2-(3-methoxyphenyl)-N,9-dimethyl-8-oxo-8,9-dihydro-7H-purine-7-carboxamide] | 110% | 2 nM | – | – |
| Cn1c(=O)n(C(=O)N2CCCC2)c2nc(-c3ccc(F)cc3)ncc21 [Example 227, 2-(4-Fluorophenyl)-7-methyl-9-(pyrrolidin-1-ylcarbonyl)-7,9-dihydro-8H-purine-8-one] | 97% | 34 nM | – | – |
| COCCCc1ncc2c(n1)n(C)c(=O)n2C(=O)N1CC(c2cccc(C(F)(F)F)c2)C1 [Example 386] | 93% | 7 nM | – | – |
| COC[C@H]1CCCN1C(=O)n1c(=O)n(C)c2nc(-c3ccccc3)ncc21 [Example 29] | 67% | 75 nM | – | – |
| Cn1c(=O)n(C(=O)N2CC(c3ccccc3)C2)c2cnc(C3CC3)nc21 [compound 623] | – | – | 87% | 3 nM |
| CCn1c(=O)n(C(=O)N2CCC2)c2nc(CCc3ccccc3F)ncc21 [Example 649, 9-(Azetidin-1-ylcarbonyl)-7-ethyl-2-[2-(2-fluorophenyl)ethyl]-7,9-dihydro-8H-purine-8-one] | – | – | 90% | 17 nM |
| Cn1c(=O)n(C(=O)N2CCC2)c2nc(-c3cccc(C(F)(F)F)c3)ncc21 [compound 357] | 107% | 11 nM | – | – |

| Compound | inhibition at 0.1 µM [1] | IC50 (test substance 0.1 nM to 1 μM) | inhibition at 0.1 µM [2] | IC50 |
| --- | --- | --- | --- | --- |
| Cn1c(=O)n(C(=O)N2CCC2)c2nc(-c3cccc(OC(F)(F)F)c3)ncc21 [compound 350] | 94% | 10 nM | – | – |
| CN(C)C(=O)n1c(=O)n(C)c2cnc(-c3ccc(C(F)(F)F)cc3)nc21 [Example 326, N,N,7-Trimethyl-8-oxo-2-[4-(trifluoromethyl)phenyl]-7,8-dihydro-9H-purine-9-carboxamide] | 83% | 52 nM | – | – |
| Cn1c(=O)n(C(=O)N2CCCC2)c2cnc(Cc3cccc(-c4ccccc4)c3)nc21 [compound 272] | 35% | > 100 nM | – | – |
| COc1cccc(-c2ncc3c(n2)n(C)c(=O)n3C(=O)N2CCN(c3cccc(F)c3)CC2)c1 [Example 137, 7-{[4-(3-Fluorophenyl)piperazin-1-yl]carbonyl}-2-(3-methoxyphenyl)-9-methyl-7,9-dihydro-8H-purine-8-one] | 98% | 5 nM | – | – |
| COc1cccc(-c2ncc3c(n2)n(C)c(=O)n3C(=O)N(C)CCC2CCOCC2)c1 [Example 117, 2-(3-Methoxyphenyl)-N,9-dimethyl-8-oxo-N-[2-(tetrahydro-2H-pyran-4-yl)ethyl]-8,9-dihydro-7H-purine-7-carboxamide] | 107% | 4 nM | – | – |
| Cn1c(=O)n(C(=O)N2CCC2)c2nc(CCCOc3ccc(F)cc3)ncc21 [Example 401, 9-(Azetidin-1-ylcarbonyl)-2-[3-(4-fluorophenoxy)propyl]-7-methyl-7,9-dihydro-8H-purine-8-one] | 99% | 9 nM | – | – |
| CN(C)C(=O)n1c(=O)n(C)c2cnc(CCc3ccc(OCC(F)F)cc3)nc21 [Example 538, 2-{2-[4-(2,2-Difluoroethoxy)phenyl]ethyl}-N,N,7-trimethyl-8-oxo-7,8-dihydro-9H-purine-9-carboxamide] | 51% | – | – | – |
| COCCCc1ncc2c(n1)n(C)c(=O)n2C(=O)N1CC(Oc2ccccc2)C1 [Example 384] | 8% | > 100 nM | – | – |
| Cc1cccc(-c2ncc3c(n2)n(C(=O)N(C)C)c(=O)n3C)c1 [compound 324] | 55% | 82 nM | – | – |
| Cn1c(=O)n(C(=O)N2CCCC2)c2cnc(-c3cc(F)ccc3F)nc21 [Example 189, 2-(2,5-Difluorophenyl)-9-methyl-7-(pyrrolidin-1-ylcarbonyl)-7,9-dihydro-8H-purine-8-one] | 100% | 7 nM | – | – |
| COCc1ncc2c(n1)n(C)c(=O)n2C(=O)N1CC(c2ccc(Cl)cc2)C1 [compound 446] | 101% | 6 nM | – | – |
| Cn1c(=O)n(C(=O)N2CC(c3ccc(F)cc3)C2)c2nc(C3CC3)ncc21 [Example 630] | – | – | 102% | 10 nM |
| CCOc1cccc(-c2ncc3c(n2)n(C(=O)N(C)C)c(=O)n3C)c1 [compound 321] | 54% | – | – | – |
| CN(C)C(=O)n1c(=O)n(C)c2cnc(CCOc3cccc(C(F)(F)F)c3)nc21 [compound 642] | – | – | 89% | 9 nM |
| COc1cccc(-c2ncc3c(n2)n(C)c(=O)n3C(=O)N2CCC(/C=C/c3ccc(Cl)cc3)CC2)c1 [Example 112, 7-({4-[(E)-2-(4-Chlorophenyl)ethenyl]piperidin-1-yl}carbonyl)-2-(3-methoxyphenyl)-9-methyl-7,9-dihydro-8H-purine-8-one] | 103% | 4 nM | – | – |
| Cn1c(=O)n(C(=O)N2CC(c3ccccc3)C2)c2nc(C3CC3)ncc21 [Example 631] | – | – | 77% | 36 nM |
| CN(CCCCc1ccccc1)C(=O)n1c(=O)n(C)c2nc(-c3ccccc3)ncc21 [Example 36, N,9-Dimethyl-8-oxo-2-phenyl-N-(4-phenylbutyl)-8,9-dihydro-7H-purine-7-carboxamide] | 98% | 7 nM | – | – |
| Cn1c(=O)n(C(=O)N2CCC2)c2nc(CCc3ccc(OC(F)(F)F)cc3)ncc21 [compound 609] | – | – | 108% | 4 nM |
| Cn1c(=O)n(C(=O)N2CCN(c3ccccc3F)CC2)c2cnc(-c3ccccc3)nc21 [Example 125, 7-{[4-(2-Fluorophenyl)piperazin-1-yl]carbonyl}-9-methyl-2-phenyl-7,9-dihydro-8H-purine-8-one] | 96% | 30 nM | – | – |
